Relative viability data for one cell line are collected here from the supplement of paper PMC10307832.

Common to all, as to experiment: relative viability (nuclei count vs DMSO), 5 days (fraction); higher = more cells survive
Compound in experiment [1]: CC1=C(CC(=O)O)c2cc(F)ccc2/C1=C\c1ccc([S+](C)[O-])cc1 [Sulindac] + CC(=O)c1c(C)c2cnc(Nc3ccc(N4CCNCC4)cn3)nc2n(C2CCCC2)c1=O [Palbociclib] (partner 0.5 µM)
The gist of the method: (§1)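 For relative viability, nuclei counts in treated wells were divided by those in vehicle wells. Lung cancer cell lines had been pin-tool dosed in 1536-well plates the day after seeding and cultured for 5 days, then fixed and stained in one step (final 0.05% Triton X-100, 1% formaldehyde, 1 ug/ml Hoechst) and imaged at 4×. Doses were one drug alone or a fixed anchor-drug dose plus five library-drug doses (not always all listed) in √10 steps, and values are duplicate-plate medians.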

Compound in experiment [2]: CN[C@@H]1C[C@H]2O[C@@](C)([C@@H]1OC)n1c3ccccc3c3c4c(c5c6ccccc6n2c5c31)C(=O)NC4 [Staurosporine] + O=C(c1cc(Cc2n[nH]c(=O)c3ccccc23)ccc1F)N1CCN(C(=O)C2CC2)CC1 [Olaparib] (partner 8 µM)
An outline of the steps:
as §1

Compound in experiment [3]: CN[C@@H]1C[C@H]2O[C@@](C)([C@@H]1OC)n1c3ccccc3c3c4c(c5c6ccccc6n2c5c31)C(=O)NC4 [Staurosporine] + COc1cccc2cc(-c3nc([C@H]4CC[C@H](C(=O)O)CC4)n4ncnc(N)c34)[nH]c12 [OSI-027] (partner 0.5 µM)
An outline of the steps:
as §1

Compound in experiment [4]: CC1=C(CC(=O)O)c2cc(F)ccc2/C1=C\c1ccc([S+](C)[O-])cc1 [Sulindac] + C[C@@H](Oc1cc(-c2cnn(C3CCNCC3)c2)cnc1N)c1c(Cl)ccc(F)c1Cl [Crizotinib] (partner 1 µM)
The gist of the method: as §1

As for UMC-11, the relative viability turned out to be 0.304 in experiment [1] (first compound 0.08 µM); 0.333 in experiment [1] (first compound 0.253 µM); 0.318 in experiment [1] (first compound 0.8 µM); 0.328 in experiment [1] (first compound 2.53 µM); 0.364 in experiment [1] (first compound 8 µM); 0.375 in experiment [2] (first compound 0.005 µM). The relative viability in experiment [2] (first compound 0.01581 µM) was determined as 0.212; in experiment [2] (first compound 0.05 µM) it was 0.154; in experiment [2] (first compound 0.1581 µM), 0.0879; in experiment [2] (first compound 0.5 µM) it was 0.0921; in experiment [3] (first compound 0.005 µM), 0.5; in experiment [3] (first compound 0.01581 µM), 0.151. For the same cell line, the relative viability was 0.138 in experiment [3] (first compound 0.05 µM); 0.133 in experiment [3] (first compound 0.1581 µM); 0.116 in experiment [3] (first compound 0.5 µM); 0.862 in experiment [4] (first compound 0.08 µM); 0.525 in experiment [4] (first compound 0.253 µM); 0.66 in experiment [4] (first compound 0.8 µM). Further, the results for the relative viability in experiment [4] (first compound 2.53 µM) and in experiment [4] (first compound 8 µM) were 0.578 and 0.901, respectively.
